# Test results published in US9718868B2, “Parathyroid hormone, insulin, and related peptides conjugated to bone targeting moieties and methods and making and using thereof” (THE GOVERNORS OF THE UNIVERSITY OF ALBERTA, priority 2012, dated 2017).
# Tested on: bone volume in ovariectomized rats
# Test: Change in bone volume by microCT in ovariectomized rat model of osteoporosis
# Assay type: in vivo
# Conditions: OVX female rats, 60 μg/kg/day subcutaneous daily for 8 weeks starting 8 weeks after surgery; at 16 weeks post-ovariectomy; compared with sham, OVX-BP, OVX-PTH and weekly BP-PEG-PTH groups
# From the text: Sixty female rats were divided into five groups and evaluated using the ovariectomy procedure (OVX): control (sham-operated; n=12), ovariectomy with bisphosphonate treatment (OVX-BP; n=12), OVX with teriparatide treatment (OVX-PTH; daily; n=12), OVX with daily BP-PEG-PTH treatment (n=12), and OVX with weekly BP-PEG-PTH treatment (n=12), where BP is 2-[(3-mercaptopropyl)thio]ethane-1,1-diyl}bis(phosphonic acid). Rats were ovariectomized at week 0 and the control group underwent a sham ovariectomy. Rats were left untreated for 8 weeks after surgery to allow for osteopenia to develop. After 8 weeks, rats in the OVX-PTH group received daily subcutaneous injections of PTH (60 μg/kg/day) for 8 weeks. Rats in the OVX-BP group received daily doses of bisphosphonate. Rats in the OVX-BP-PEG-PTH daily group received daily subcutaneous injections of BP-PEG-PTH (60 μg/kg/day). Rats in the OVX-BP-PEG-PTH weekly group received weekly subcutaneous injections of BP-PEG-PTH (60 μg/kg/week).
# In vivo change in bone volume was measured by micro-computed tomography (microCT).
substance,measurement,value
"BP-PEG-PTH: hPTH (1-34) conjugated via Maleimide-PEG3500-NHS linker to thiol-bisphosphonate 2-[(3-mercaptopropyl)thio]ethane-1,1-diyl}bis(phosphonic acid)",In vivo change in bone volume (microCT),greatest increase in bone volume
